Key:
HS-PSS [1] = test: relative IC50 (inflection point of fitted dose-response curve, CellTox-Green cytotoxicity, 72 h; top asymptote may be below 50%); higher = less potent
Summary of the method: (§1)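 MPNST cell lines and primary human Schwann cells were incubated 72 h at 37 °C in 384-well plates holding five 10-fold compound dilutions. CellTox-Green was added before seeding at a final 1:1000 dilution and reported fluorescence from DNA released by disrupted cells. Signals were scaled to vehicle and positive-control wells, and cultures failing plate quality control were dropped. Drug sensitivity score and relative IC50 come from four-parameter logistic fits, with IC50 censored at the top concentration.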

HSC1 [2] = test: as above
Summary of the method: as §1

HSC2 [3] = test: as above
Summary of the method: as §1

S1507-2 [4] = test: as above
Summary of the method: as §1

ST8814 [5] = test: as above
Summary of the method: as §1

STS26T [6] = test: as above
Summary of the method: as §1

HS-PSS [7] = test: relative IC50 (inflection point of fitted dose-response curve, CellTiter-Glo viability, 72 h; top asymptote may be below 50% inhibition); higher = less potent
Summary of the method: (§2)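 MPNST cell lines and primary human Schwann cells (750–1000 cells per well) went into 384-well plates preprinted with each compound at five concentrations in 10-fold steps. Plates were incubated 72 h at 37 °C, 5% CO2. Viability was read as CellTiter-Glo ATP luminescence, scaled between vehicle and positive-control wells, with duplicates averaged where present. Percent inhibition is at the top concentration; drug sensitivity score and relative IC50 (censored at top concentration) come from four-parameter logistic fits.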

HS-Sch-2 = test: as above
Summary of the method: as §2

HSC2 [8] = test: as above
Summary of the method: as §2

S1507-2 [9] = test: as above
Summary of the method: as §2

S462 = test: as above
Summary of the method: as §2

ST8814 [10] = test: as above
Summary of the method: as §2

STS26T [11] = test: as above
Summary of the method: as §2

YST-1 = test: as above
Summary of the method: as §2

HSC1 [12] = test: as above
Summary of the method: as §2

Row | Compound | relative IC50 (HS-PSS [1]) | relative IC50 (HSC1 [2]) | relative IC50 (HSC2 [3]) | relative IC50 (S1507-2 [4]) | relative IC50 (ST8814 [5]) | relative IC50 (STS26T [6]) | relative IC50 (HS-PSS [7]) | relative IC50 (HS-Sch-2) | relative IC50 (HSC2 [8]) | relative IC50 (S1507-2 [9]) | relative IC50 (S462) | relative IC50 (ST8814 [10]) | relative IC50 (STS26T [11]) | relative IC50 (YST-1) | relative IC50 (HSC1 [12])
1 | COc1cc2c(NC3CCN(C(C)C)CC3)nc(N3CCC(F)(F)CC3)nc2cc1OCCCN1CCCC1 [UNC0642] | 2.96 µM | > 10 µM | > 10 µM | 2.9 µM | 3.02 µM | 2.91 µM | 2.6 µM | 2.88 µM | > 10 µM | 1.94 µM | 2.69 µM | 2.97 µM | 3.06 µM | 3.19 µM | –
2 | Cc1nc(C(=O)NCC(=O)O)c(O)c2ccc(Oc3ccccc3)cc12 [FG-4592] | > 10 µM | > 10 µM | > 10 µM | > 10 µM | > 10 µM | > 10 µM | 1.21 µM | 2.47 µM | – | > 10 µM | > 10 µM | > 10 µM | > 10 µM | > 10 µM | –
3 | CC(C)NC[C@@H](C(=O)N1CCN(c2ncnc3c2[C@H](C)C[C@H]3O)CC1)c1ccc(Cl)cc1 [GDC-0068] | – | – | > 10 µM | > 10 µM | > 10 µM | > 10 µM | – | – | > 10 µM | 2.06 µM | – | – | 0.544 µM | – | –
4 | O=C(Nc1cccnc1)N1CCC(Cc2cccc(Oc3ccc(C(F)(F)F)cn3)c2)CC1 [PF-3845] | > 10 µM | > 10 µM | – | > 10 µM | > 10 µM | > 10 µM | 1.41 µM | 3.07 µM | 1.43 µM | > 10 µM | – | – | – | 3.52 µM | 1.52 µM
5 | CC(O)(CS(=O)(=O)c1ccc(F)cc1)C(=O)Nc1ccc(C#N)c(C(F)(F)F)c1 (centres undefined) [Bicalutamide] | > 10 µM | > 10 µM | > 10 µM | > 10 µM | > 10 µM | > 10 µM | – | – | > 10 µM | > 10 µM | – | > 10 µM | – | > 10 µM | –
6 | CC1(C)CCC(c2ccc(Cl)cc2)=C(CN2CCN(c3ccc(C(=O)NS(=O)(=O)c4ccc(N[C@H](CCN5CCOCC5)CSc5ccccc5)c(S(=O)(=O)C(F)(F)F)c4)cc3)CC2)C1 [Navitoclax] | > 10 µM | 1.54 µM | 0.983 µM | 0.608 µM | 1.5 µM | – | > 10 µM | 0.547 µM | 1.12 µM | 0.582 µM | – | – | – | 0.471 µM | –
7 | CC(C)C(=O)Nc1ccc([N+](=O)[O-])c(C(F)(F)F)c1 [Flutamide] | > 10 µM | > 10 µM | > 10 µM | > 10 µM | > 10 µM | > 10 µM | – | > 10 µM | > 10 µM | > 10 µM | > 10 µM | > 10 µM | – | > 10 µM | –
8 | O=C1CN2Cc3c(ccc(Cl)c3Cl)N=C2N1 [Anagrelide] | > 10 µM | > 10 µM | – | > 10 µM | > 10 µM | > 10 µM | > 10 µM | 0.144 µM | 0.134 µM | > 10 µM | > 10 µM | – | > 10 µM | > 10 µM | –

Source: the supplement of paper PMC5579334
